Experimental data: ChEMBL document CHEMBL6153076, “Discovery of novel JQ1 derivatives as dual ferroptosis and apoptosis inducers for the treatment of triple-negative breast cancer” (Eur J Med Chem, 2025)
The source made the active and inactive calls. No cut-off for these calls is given here.

Key:
[1] = Cytotoxicity against human MCF-10A cells assessed as inhibition of cell proliferation incubated for 72 hrs by MTT assay; assay type: toxicity, cell-based
[2] = Selectivity index, ratio of IC50 for antiproliferative activity against human MCF-10A cells assessed as inhibition of cell proliferation to IC50 for antiproliferative activity against human MDA-MB-231 cells assessed as inhibition of cell proliferation; assay type: toxicity, cell-based; conditions: MCF-10A cells and MDA-MB-231 cells, read-out: Ratio IC50
[3] = test system: MDA-MB-231; experiment: Downregulation of NRF2 expression in human MDA-MB-231 cells at 5 uM; assay type: functional, cell-based
[4] = test system: MDA-MB-231; experiment: Downregulation of HO-1 expression in human MDA-MB-231 cells at 5 uM; assay type: functional, cell-based
[5] = test system: MDA-MB-231; experiment: Induction of apoptosis in human MDA-MB-231 cells assessed as viable cells at 5 uM incubated for 48 hrs by Annexin V/PI staining based flow cytometry analysis (reference value: 97.85%); assay type: functional; conditions: read-out: Activity
[6] = test system: MDA-MB-231; experiment: Induction of apoptosis in human MDA-MB-231 cells assessed as early apoptotic cells at 5 uM incubated for 48 hrs by Annexin V/PI staining based flow cytometry analysis (reference value: 0.80%); assay type: functional
[7] = test system: MDA-MB-231; experiment: Induction of apoptosis in human MDA-MB-231 cells assessed as late apoptotic cells at 5 uM incubated for 48 hrs by Annexin V/PI staining based flow cytometry analysis (reference value: 0.14%); assay type: functional
[8] = test system: MDA-MB-231; experiment: Induction of apoptosis in human MDA-MB-231 cells assessed as necrotic cells at 5 uM incubated for 48 hrs by Annexin V/PI staining based flow cytometry analysis (reference value: 0.03%); assay type: functional
[9] = test system: MDA-MB-231; experiment: Induction of cell cycle arrest in human MDA-MB-231 cells assessed as accumulation of cells at G0/G1 phase at 5 uM incubated for 48 hrs by propidium iodide staining flow cytometric analysis (reference value: 64.56 %); assay type: functional
[10] = test system: MDA-MB-231; experiment: Induction of cell cycle arrest in human MDA-MB-231 cells assessed as accumulation of cells at G2/M phase at 5 uM incubated for 48 hrs by propidium iodide staining flow cytometric analysis (reference value: 8.69%); assay type: functional
[11] = test system: MDA-MB-231; experiment: Induction of cell cycle arrest in human MDA-MB-231 cells assessed as accumulation of cells at S phase at 5 uM incubated for 48 hrs by propidium iodide staining flow cytometric analysis (reference value: 26.75%); assay type: functional
[12] = test system: MDA-MB-231; experiment: cells; conditions: Homo sapiens, MDA-MB-231, 72 h
Description: Antiproliferative activity against human MDA-MB-231 cells assessed as inhibition of cell proliferation incubated for 72 hrs by MTT assay

[13] = test system: BT-549; experiment: cells; conditions: Homo sapiens, BT-549, 72 h
Description: Antiproliferative activity against human BT-549 cells assessed as inhibition of cell proliferation incubated for 72 hrs by MTT assay

[14] = test system: MDA-MB-231; experiment: Downregulation of BRD4 expression in human MDA-MB-231 cells by Western blot analysis; assay type: functional, cell-based; conditions: dose 0.2-5 µM
[15] = biological target: Bromodomain-containing protein 4 (Homo sapiens, UniProt O60885); experiment: Inhibition of BRD4 (unknown origin) incubated for 120 mins by TR-FRET assay
[16] = test system: MDA-MB-231; experiment: Downregulation of GPX4 expression in human MDA-MB-231 cells by Western blot analysis; assay type: functional, cell-based; conditions: dose 0.2-5 µM
[17] = test system: MDA-MB-231; experiment: Induction of ferroptosis in human MDA-MB-231 cells assessed as increase in intracellular LPO accumulation incubated for 48 hrs by confocal laser scanning microscopic analysis; assay type: functional, cell-based; conditions: dose 0.2-5 µM
[18] = test system: MDA-MB-231; experiment: Induction of ferroptosis in human MDA-MB-231 cells assessed as increase in intracellular MDA accumulation incubated for 48 hrs; assay type: functional, cell-based; conditions: dose 0.2-5 µM
[19] = test system: MDA-MB-231; experiment: Induction of ferroptosis in human MDA-MB-231 cells assessed as decrease in GSH level incubated for 48 hrs; assay type: functional, cell-based; conditions: dose 0.2-5 µM
[20] = test system: MDA-MB-231; experiment: Induction of ferroptosis in human MDA-MB-231 cells assessed as increase in intracellular Fe2+ level at 0.2 to 5 uM incubated for 48 hrs by FerroOrange staining based flow cytometry analysis; assay type: functional, cell-based; conditions: dose 0.2-5 µM
[21] = test system: MDA-MB-231; experiment: Downregulation of SLC3A2 expression in human MDA-MB-231 cells; assay type: functional, cell-based; conditions: dose 0.2-5 µM
[22] = test system: MDA-MB-231; experiment: Downregulation of SLC7A11 expression in human MDA-MB-231 cells; assay type: functional, cell-based; conditions: dose 0.2-5 µM
[23] = test system: MDA-MB-231; experiment: Downregulation of FSP1 expression in human MDA-MB-231 cells; assay type: functional, cell-based; conditions: dose 0.2-5 µM
[24] = test system: MDA-MB-231; experiment: Downregulation of FTH1 expression in human MDA-MB-231 cells; assay type: functional, cell-based; conditions: dose 0.2-5 µM
[25] = test system: MDA-MB-231; experiment: Downregulation of NRF2 expression in human MDA-MB-231 cells at 0.2 to 5 uM; assay type: functional, cell-based; conditions: dose 0.2-5 µM
[26] = test system: MDA-MB-231; experiment: Downregulation of HO-1 expression in human MDA-MB-231 cells at 0.2 to 5 uM; assay type: functional, cell-based; conditions: dose 0.2-5 µM
[27] = test system: MDA-MB-231; experiment: Induction of apoptosis in human MDA-MB-231 cells assessed as viable cells at 0.2 uM incubated for 48 hrs by Annexin V/PI staining based flow cytometry analysis (reference value: 97.85%); assay type: functional; conditions: read-out: Activity
[28] = test system: MDA-MB-231; experiment: Induction of apoptosis in human MDA-MB-231 cells assessed as early apoptotic cells at 0.2 uM incubated for 48 hrs by Annexin V/PI staining based flow cytometry analysis (reference value: 0.80%); assay type: functional
[29] = test system: MDA-MB-231; experiment: Induction of apoptosis in human MDA-MB-231 cells assessed as late apoptotic cells at 0.2 uM incubated for 48 hrs by Annexin V/PI staining based flow cytometry analysis (reference value: 0.14%); assay type: functional
[30] = test system: MDA-MB-231; experiment: Induction of apoptosis in human MDA-MB-231 cells assessed as necrotic cells at 0.2 uM incubated for 48 hrs by Annexin V/PI staining based flow cytometry analysis (reference value: 0.03%); assay type: functional
[31] = test system: MDA-MB-231; experiment: Induction of apoptosis in human MDA-MB-231 cells assessed as viable cells at 1 uM incubated for 48 hrs by Annexin V/PI staining based flow cytometry analysis (reference value: 97.85%); assay type: functional; conditions: read-out: Activity
[32] = test system: MDA-MB-231; experiment: Induction of apoptosis in human MDA-MB-231 cells assessed as early apoptotic cells at 1 uM incubated for 48 hrs by Annexin V/PI staining based flow cytometry analysis (reference value: 0.80%); assay type: functional
[33] = test system: MDA-MB-231; experiment: Induction of apoptosis in human MDA-MB-231 cells assessed as late apoptotic cells at 1 uM incubated for 48 hrs by Annexin V/PI staining based flow cytometry analysis (reference value: 0.14%); assay type: functional
[34] = test system: MDA-MB-231; experiment: Induction of apoptosis in human MDA-MB-231 cells assessed as necrotic cells at 1 uM incubated for 48 hrs by Annexin V/PI staining based flow cytometry analysis (reference value: 0.03%); assay type: functional
[35] = test system: MDA-MB-231; experiment: Induction of apoptosis in human MDA-MB-231 cells assessed as upregulation of Bax expression at 0.2 to 5 uM; assay type: functional, cell-based; conditions: dose 0.2-5 µM
[36] = test system: MDA-MB-231; experiment: Induction of apoptosis in human MDA-MB-231 cells assessed as upregulation of C-myc expression at 0.2 to 5 uM; assay type: functional, cell-based; conditions: dose 0.2-5 µM
[37] = test system: MDA-MB-231; experiment: Induction of apoptosis in human MDA-MB-231 cells assessed as […] expression at 0.2 to 5 uM; assay type: functional, cell-based; conditions: dose 0.2-5 µM
[38] = test system: MDA-MB-231; experiment: Induction of cell cycle arrest in human MDA-MB-231 cells assessed as accumulation of cells at G0/G1 phase at 0.2 uM incubated for 48 hrs by propidium iodide staining flow cytometric analysis (reference value: 64.56 %); assay type: functional
[39] = test system: MDA-MB-231; experiment: Induction of cell cycle arrest in human MDA-MB-231 cells assessed as accumulation of cells at G2/M phase at 0.2 uM incubated for 48 hrs by propidium iodide staining flow cytometric analysis (reference value: 8.69%); assay type: functional
[40] = test system: MDA-MB-231; experiment: Induction of cell cycle arrest in human MDA-MB-231 cells assessed as accumulation of cells at S phase at 0.2 uM incubated for 48 hrs by propidium iodide staining flow cytometric analysis (reference value: 26.75%); assay type: functional
[41] = test system: MDA-MB-231; experiment: Induction of cell cycle arrest in human MDA-MB-231 cells assessed as accumulation of cells at G0/G1 phase at 1 uM incubated for 48 hrs by propidium iodide staining flow cytometric analysis (reference value: 64.56 %); assay type: functional
[42] = test system: MDA-MB-231; experiment: Induction of cell cycle arrest in human MDA-MB-231 cells assessed as accumulation of cells at G2/M phase at 1 uM incubated for 48 hrs by propidium iodide staining flow cytometric analysis (reference value: 8.69%); assay type: functional
[43] = test system: MDA-MB-231; experiment: Induction of cell cycle arrest in human MDA-MB-231 cells assessed as accumulation of cells at S phase at 1 uM incubated for 48 hrs by propidium iodide staining flow cytometric analysis (reference value: 26.75%); assay type: functional
[44] = test system: MDA-MB-231; experiment: Anti-metastatic activity in human MDA-MB-231 cells assessed as inhibition of cell migration incubated for 24 hrs by inverted microscopic analysis; assay type: functional, cell-based; conditions: dose 0.2-5 µM
[45] = test system: MDA-MB-231; experiment: Antitumor activity against human MDA-MB-231 cells xenografted in nude mouse assessed as suppression of tumor growth at 50 mg/kg, ip administered daily for 21 days; assay type: functional, organism-based; conditions: time 21.0 day
[46] = Toxicity in nude mouse xenografted with human MDA-MB-231 cells at 50 mg/kg, ip administered daily for 21 days; assay type: organism-based; conditions: in vivo, 504 h, time 21 day
[47] = test system: MDA-MB-231; experiment: Antitumor activity against human MDA-MB-231 cells xenografted in nude mouse assessed as tumor growth inhibition at 50 mg/kg, ip administered daily for 21 days; assay type: functional; conditions: MDA-MB-231, 504 h, time 21 day, read-out: TGI

In the case of Cc1sc2c(c1C)C(c1ccc(Cl)cc1)=N[C@@H](CC(=O)OC(C)(C)C)c1nnc(C)n1-2, the IC50 at 72 h [1] is reported as 46.4 µM, the selectivity ratio [2] is reported as 1.79 and the Activity [3] is reported as “Active”. The Activity [4] was “Active”, the viability at 5 µM [5] was 66.4% and the Activity [6] was 16.44%. The Activity [7] was 16.28%, the Activity [8] was 0.66% and the Activity [9] was 50.48%. The Activity [10] was 18.29%, the Activity [11] was 31.23% and the IC50 [12] was 25.9 µM. It also gave an IC50 [13] of 20.1 µM.
For Cc1sc2c(c1C)C(c1ccc(Cl)cc1)=N[C@@H](CC(=O)NC1CCN(C(=O)CCl)CC1)c1nnc(C)n1-2, the IC50 at 72 h [1] was 2.56 µM, the Activity [14] was “Dose-dependent-effect” and the IC50 [15] was 0.331 µM. For the same compound, the Activity [16] was “Dose-dependent-effect”, the Activity [17] was “Dose-dependent-effect” and the Activity [18] was “Dose-dependent-effect”. For the same compound, the Activity [19] was “Dose-dependent-effect”, the Activity [20] was “Active” and the Activity [21] was “Dose-dependent-effect”. The Activity [22] was “Dose-dependent-effect”, the Activity [23] was “Dose-dependent-effect” and the Activity [24] was “Dose-dependent-effect”. The Activity [25] was “Active”, the Activity [26] was “Active” and the viability at 0.2 µM [27] was 88%. It also gave an Activity [28] of 6.1%, an Activity [29] of 5.14% and an Activity [30] of 0.68%. The viability at 1 µM [31] was 72.5%, the Activity [32] was 16.51% and the Activity [33] was 9.51%. It also gave an Activity [34] of 1.44%, a viability at 5 µM [5] of 59.7% and an Activity [6] of 18.2%. For the same compound, the Activity [7] was 21.27%, the Activity [8] was 0.7% and the Activity [35] was “Active”. For the same compound, the Activity [36] was “Active”, the Activity [37] was “Active” and the Activity [38] was 60.87%. The Activity [39] was 10.25%, the Activity [40] was 28.88% and the Activity [41] was 53.71%. It also gave an Activity [42] of 15.47%, an Activity [43] of 30.62% and an Activity [9] of 42.44%. For the same compound, the Activity [10] was 25.39%, the Activity [11] was 32.17% and the Activity [44] was “Dose-dependent-effect”. The Activity [45] was “Active”, the Activity [46] was “Non-toxic” and the inhibition in vivo at 50 mg/kg [47] was 51.4%. It also gave an IC50 [12] of 0.49 µM and an IC50 [13] of 0.52 µM.
